Results taken from patent EP2742937A1, “Compositions for use in the treatment of bacterial infections” (LIONEX Diagnostics and Therapeutics GmbH, priority 2012, dated 2014).
≈ marks a conversion by molar mass, not a printed value. Where two headings read alike, the source gives them in different places.

Assays:
L929 cell line = assay: MTT cell proliferation assay (in vitro toxicity); format: cell-based, mouse; conditions: for IC50: Mus musculus, L929, 120 h
M. tuberculosis H37Rv = assay: Resazurin microtiter assay (REMA), MIC; format: cell-based; conditions: for MIC: Mycobacterium tuberculosis; for synergistic effect with ethambutol: in words
[1] = in words; Haebich & Von Nussbaum, 2009; cited from earlier work
M. bovis BCG = assay: microbe, parasite or virus in culture; format: cell-based, Mycobacterium bovis BCG; conditions: for MIC With medium containing 50 % FBS / MIC in 100% medium: M. bovis BCG, resazurin assay; for MIC With medium containing 50 % FBS: 50 % fetal bovine serum; for MIC in 100% medium: no FBS; for MIC: Mycobacterium tuberculosis variant bovis BCG, BCG, read-out: MIC With medium containing 50 % FBS
[2] = MTT assay after 5 days, individual substances, read-out: In vitro toxicity with L929 cell line IC50
[3] = H37RV, read-out: MIC (µg/ml) against M. tuberculosis H37Rv With medium containing ethambutol
[4] = H37RV, REMA, individual substance, read-out: MIC (µg/ml) against M. tuberculosis H37Rv Individual substance
[5] = MTT assay after 5 days, individual substances

Row | SMILES | IC50 (L929 cell line; [2]) [µg/mL] | MIC (M. tuberculosis H37Rv; [3]) [µg/mL] | MIC (M. tuberculosis H37Rv; [4]) [µg/mL] | MIC (µg/ml) against M. tuberculosis H37Rv Individual substance (M. tuberculosis H37Rv; REMA, individual substance) | MIC (µg/ml) against M. tuberculosis H37Rv Individual substance (M. tuberculosis H37Rv; REMA, individual substance, listed as ripostatin) [µg/mL] | synergistic effect with ethambutol (M. tuberculosis H37Rv) | In vitro toxicity with L929 cell line IC50 (L929 cell line; [5]) [µg/mL] | serum protein binding [1] | MIC (µg/ml) against M. tuberculosis H37Rv With medium containing ethambutol (M. tuberculosis H37Rv; REMA, Ethambutol at Conc. 0.3 µg/ml in medium) [µg/mL] | MIC With medium containing 50 % FBS (M. bovis BCG) | MIC in 100% medium (M. bovis BCG) | MIC (M. bovis BCG) [µg/mL] | In vitro toxicity with L929 cell line IC50 (µg/ml) (L929 cell line; [5]) | IC50 (L929 cell line; read-out: In vitro toxicity with L929 cell line IC50 (µg/ml)) [µg/mL] | FIC (M. tuberculosis H37Rv; H37RV) | MIC (µg/ml) against M. tuberculosis H37Rv Individual substance (M. tuberculosis H37Rv; H37RV) [µg/mL] | MIC (M. tuberculosis H37Rv; H37RV, read-out: MIC (µg/ml) against M. tuberculosis H37Rv Individual substance) [µg/mL]
1 | C/C(=C\Cc1ccccc1)CCC(=O)C[C@H]1C[C@H](O)C/C(C)=C/C/C=C/C/C(CC(=O)O)=C\C(=O)O1 [Ripostatin] | > 100 | > 25 | > 25 | no inhibition up to 25 µg/ml | > 25 | did not show synergism with ethambutol |  |  |  |  |  |  |  |  |  |  | 
2 | C/C=C/C/C=C(\C)C(O)CC/C(C)=C/C=C(\C)C(=O)c1c(O)cc([C@H](C)CC/C=C/NC(=O)OC)oc1=O (stereo partly drawn) [Corallopyronin] |  |  |  | 12.5 µg/mL (≈ 23.7 µM) |  | did not show synergism with ethambutol | 25 | high serum protein binding | 12.5 (≈ 23.7 µM) |  |  |  |  |  |  |  | 
3 | CC[C@@H](CO)NCCN[C@@H](CC)CO [Ethambutol] | > 100 |  | 1.6 (≈ 7.83 µM) |  |  |  |  |  |  | not affected by the addition of the FBS | 2.5 | 2.5 (≈ 12.2 µM) |  |  |  |  | 
4 | CCCC(C)=CC=C(C)C(=O)c1c(O)cc(C(C)CCC=CNC(=O)OC)oc1=O (stereo not drawn) [Myxopyronin A] |  | 3.12 (≈ 7.48 µM) |  |  |  | synergistic effect |  | high serum protein binding |  | did not inhibit the growth of M. bovis BCG | 6.25 | > 25 | did not inhibit L929 cell proliferation at all tested concentrations | > 100 | 0.64 | 6.25 (≈ 15 µM) | 6.25 (≈ 15 µM)
